Laboratory results reported in patent publication US12338262B2 (Forward Therapeutics, Inc., priority 2022, dated 2025).

The molecules below were run against TNF-α (Homo sapiens, UniProt P01375) (assay: TNF-α Induced HEK Blue Cellular Assay). Settings: HEK Blue TNFα reporter cells, TNF-α 100 pg/ml, 24 hrs at 37° C., secreted alkaline phosphatase (QUANTI-Blue, 620 nm).
Type: cell-based
Method in brief: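 Read-out is SEAP via QUANTI-Blue absorbance at 620 nm after a 24 h, 37 °C incubation of reporter HEK Blue cells with 100 pg/ml TNF-α plus compound at final […]–0.5 nM. Percent inhibition normalised to DMSO ± stimulation; 4-parameter logistic fit gives IC50.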

Chain of TNF-α (P01375 77-233 limits assumed): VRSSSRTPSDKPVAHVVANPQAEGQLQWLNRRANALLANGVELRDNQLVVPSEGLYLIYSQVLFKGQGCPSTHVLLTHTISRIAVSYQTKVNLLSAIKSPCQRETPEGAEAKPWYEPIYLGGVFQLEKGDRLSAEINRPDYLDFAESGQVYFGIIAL

Compound	IC50 [µM]
Cc1nc2cc(F)c(-c3ccc(P4(=O)CCOCC4)nc3)nc2c(N[C@H](C)c2cccc(F)c2F)c1Cl [Example 143, 4-[5-(7-chloro-8-{[(1R)-1-(2,3-difluorophenyl)ethyl]amino}-3-fluoro-6-methyl-1,5-naphthyridin-2-yl)pyridin-2-yl]-1,4lambda5-oxaphosphinan-4-one]	10 to 30
CC[C@@H](Nc1c(Cl)c(C)nc2cc(F)c(-c3ccc(P(C)(C)=O)nc3)nc12)c1cc(F)cc(F)c1 [Example 147, 3-chloro-N-[(1R)-1-(3,5-difluorophenyl)propyl]-6-[6-(dimethylphosphoryl)pyridin-3-yl]-7-fluoro-2-methyl-1,5-naphthyridin-4-amine]	1 to 10
CC[C@H](Nc1c(Cl)c(C)nc2cc(F)c(-c3ccc(P(C)(C)=O)nc3)nc12)c1cc(F)cc(F)c1 [Example 148, 3-chloro-N-[(1S)-1-(3,5-difluorophenyl)propyl]-6-[6-(dimethylphosphoryl)pyridin-3-yl]-7-fluoro-2-methyl-1,5-naphthyridin-4-amine]	1 to 10
CCC(Nc1c(Cl)c(C)nc2cc(F)c(-c3ccc(P(C)(C)=O)nc3)nc12)c1ccn(C)n1 (centres unmarked) [Example 149, 3-chloro-6-[6-(dimethylphosphoryl)pyridin-3-yl]-7-fluoro-2-methyl-N-[1-(1-methylpyrazol-3-yl)propyl]-1,5-naphthyridin-4-amine]	10 to 30
Cc1nc2cc(F)c(-c3ccc(P(C)(C)=O)nc3)nc2c(N[C@H](C)c2cc(C3CC3)ccc2F)c1Cl [Example 150, 3-chloro-N-[(1R)-1-(5-cyclopropyl-2-fluorophenyl)ethyl]-6-[6-(dimethylphosphoryl)pyridin-3-yl]-7-fluoro-2-methyl-1,5-naphthyridin-4-amine]	≤ 1

Now from value to molecule:

IC50 [µM]	Compound
1 to 10	Cc1nc2cc(F)c(-c3ccc(P(C)(C)=O)nc3)nc2c(NC(c2cccc(F)c2F)C(C)(F)F)c1Cl (centres unmarked) [Example 142, 3-chloro-N-[1-(2,3-difluorophenyl)-2,2-difluoropropyl]-6-[6-(dimethylphosphoryl)pyridin-3-yl]-7-fluoro-2-methyl-1,5-naphthyridin-4-amine]
10 to 30	Cc1nc2cc(F)c(-c3ccc(P(C)(C)=O)nc3)nc2c(N[C@H](C)c2cccc(F)c2F)c1C#N [Example 144, 4-{[(1R)-1-(2,3-difluorophenyl)ethyl]amino}-6-[6-(dimethylphosphoryl)pyridin-3-yl]-7-fluoro-2-methyl-1,5-naphthyridine-3-carbonitrile]
1 to 10	Cc1nc2cc(F)c(-c3ccc(P(C)(C)=O)nc3)nc2c(N[C@H](c2cccc(F)c2F)C(F)F)c1Cl [Example 146, (R)-(5-(7-chloro-8-((1-(2,3-difluorophenyl)-2,2-difluoroethyl)amino)-3-fluoro-6-methyl-1,5-naphthyridin-2-yl)pyridin-2-yl)dimethylphosphine oxide]
